Source: patent US20240425464A1, “Substituted Monohydrazides as Potent Antifungal Agents” (University of Kentucky Research Foundation, priority 2023, published 2024)
Values after ≈ are worked out from the molar mass of the structure shown. Read-outs that look alike come from different tables or passages of the source.

Key:
HepG2 cells = assay: In vitro cytotoxicity assay (resazurin); format: cell-based
Experimental: The antifungal agent amphotericin B (AmB) was purchased from VWR (Radnor PA, USA). AmB was dissolved in DMSO at a final concentration of 5 mg/mL and was stored at −20° C., protected from light. […] For cytotoxicity assays, HepG2 and the mouse macrophage cell line J774A.1 were obtained from University of Kentucky. […] Mammalian cells were grown in Dulbecco's Modified Eagle's Medium (DMEM) (from VWR) with 10% fetal bovine serum (FBS) (from VWR) and 1% Pen/Strep (from ATCC). Cell lines were cultured at 37° C. with 5% CO2 and passaged by trypsinization with 0.05% trypsin: 0.53 mM EDTA (from Sigma-Aldrich).
Cytotoxicity assays were performed as previously described with slight modifications.^3 HepG2, J774A.1, and HEK-293 cells were first thawed from frozen stocks kept in liquid N2 and grown in Dulbecco's modified Eagles's medium (DMEM) containing 10% fetal bovine serum (FBS) and 1% Pen/Strep. […] The 96-well plates were incubated 37° C. with 5% CO2 overnight. […] The medium in the 96-well plates containing the cells was aspirated and replaced by fresh DMEM (100 μL). […] The 96-well plates were further incubated for 24 h at 37° C. with 5% CO2 overnight. To evaluate cell survival, each well was treated with 10 μL (2 mM) of resazurin sodium salt (Sigma-Aldrich, St. Louis, MO, USA) and was incubated for another 6 h. Metabolically active cells can convert resazurin to the highly fluorescent dye, resorufin, and be detected at ?560 excitation and λ590 emission using a SpectraMax M5 plate reader (Molecular Devices, San Jose, CA, USA). Triton X-100® (1%, v/v) was used as positive control; the negative control consisted of cells treated with the delivery vehicle (0.05% DMSO), and the blank control was only the culture medium with 0.05% DMSO without cells. The experiments were performed in quadruplicate.

[1] = test system: Candida duobushaemulonii AR Bank #391; assay: MIC determination by in vitro antifungal assay; format: cell-based
Experimental: (§1) The antifungal agent amphotericin B (AmB) was purchased from VWR (Radnor PA, USA). AmB was dissolved in DMSO at a final concentration of 5 mg/mL and was stored at −20° C., protected from light. Candida albicans American Type Culture Collection (ATCC) 10231 (strain A), C. albicans ATCC 64124 (B), and C. albicans ATCC MYA-2876 (C) were obtained from Utah State University. C. albicans ATCC 90819 (D), C. albicans ATCC MYA-2310 (E), C. albicans ATCC MYA-1237 (F), C. albicans ATCC MYA-1003 (G), Candida glabrata ATCC 2001 (H), Candida krusei ATCC 6258 (I), Candida parapsilosis ATCC 22019 (J), Cryptococcus neoformans ATCC MYA-895 (M), Aspergillus terreus ATCC MYA-3633 (N), and Aspergillus flavus ATCC MYA-3631 (0) were obtained from the American Type Culture Collection (ATCC; Manassas, VA, USA). Aspergillus nidulans ATCC 38163 (P) was obtained from University of Kentucky. Clinically derived Aspergillus fumigatus NRRL 163 (Q), A. fumigatus NRRL 5109 (R), and A. fumigatus NRRL 6113 (S) were obtained from Northern Regional Research Laboratory (NRRL). Candida auris 384 (K), C. auris 390 (L), and fungal strains 381-400 (including 10 C. auris (AR Bank #381-390), 3 Candida duobushaemulonii (AR Bank #391, AR Bank #392, and AR Bank #394), 2 Candida haemulonii (AR Bank #393 and AR Bank #395), 1 Kodameae ohmeri (AR Bank #396), 1 C. krusei (AR Bank #397), 1 Candida lusitaniae (AR Bank #398), and 2 Saccharomyces cerevisiae strains (AR Bank #399 and AR Bank #400)) were part of a larger fungal library from the AR Bank maintained by the Centers for Disease Control and Prevention (CDC; Atlanta, GA, USA). Filamentous fungi and yeasts were cultivated at 35° C. in RPMI 1640 medium (with L-glutamine, without sodium bicarbonate, Sigma-Aldrich, St. Louis, MO) buffered to a pH of 7.0 with 0.165 M morpholinepropanesulfonic acid (MOPS) buffer (Sigma-Aldrich). For cytotoxicity assays, HepG2 and the mouse macrophage cell line J774A.1 were obtained from University of Kentucky. The human embryonic kidney cell line, HEK-293, was bought from the ATCC. Mammalian cells were grown in Dulbecco's Modified Eagle's Medium (DMEM) (from VWR) with 10% fetal bovine serum (FBS) (from VWR) and 1% Pen/Strep (from ATCC). Cell lines were cultured at 37° C. with 5% CO2 and passaged by trypsinization with 0.05% trypsin: 0.53 mM EDTA (from Sigma-Aldrich).
(§2) From the actively growing yeast culture, 100 µL were then transferred to 900 μL of RPMI 1640 medium and re-adjusted to achieve OD600 of 0.12 (˜1×10^6 CFU/mL). The cell suspension was further diluted to achieve 1:100 in RPMI 1640 medium.

[2] = test system: Saccharomyces cerevisiae AR Bank #399; assay: MIC determination by in vitro antifungal assay; format: cell-based
Experimental: as §1, §2

[3] = test system: Candida haemulonii AR Bank #395; assay: MIC determination by in vitro antifungal assay; format: cell-based
Experimental: as §1, §2

[4] = test system: Candida lusitaniae AR Bank #398; assay: MIC determination by in vitro antifungal assay; format: cell-based; details: Candida strain AR Bank #398
Experimental: as §1, §2

[5] = test system: Candida duobushaemulonii AR Bank #392; assay: MIC determination by in vitro antifungal assay; format: cell-based
Experimental: as §1, §2

[6] = test system: Candida haemulonii AR Bank #393; assay: MIC determination by in vitro antifungal assay; format: cell-based
Experimental: as §1, §2

[7] = test system: Kodameae ohmeri AR Bank #396; assay: MIC determination by in vitro antifungal assay; format: cell-based; details: strain AR Bank #396
Experimental: as §1, §2

[8] = test system: Candida krusei AR Bank #397; assay: MIC determination by in vitro antifungal assay; format: cell-based; details: Candida strain AR Bank #397
Experimental: as §1, §2

[9] = test system: Candida duobushaemulonii AR Bank #394; assay: MIC determination by in vitro antifungal assay; format: cell-based
Experimental: as §1, §2

[10] = test system: panel of ten C. auris strains (AR Bank #381-390); assay: MIC determination, summary over the C. auris panel; format: cell-based, Candida auris; details: Candidozyma auris
Experimental: as §1, §2

[11] = Candidozyma duobushaemuli, read-out: MIC
[12] = Candidozyma haemuli, read-out: MIC
[13] = Clavispora lusitaniae, read-out: MIC
[14] = Pichia kudriavzevii, read-out: MIC
[15] = against all ten C. auris strains tested (AR Bank #381-390)

Compound | MIC [1, 11] | MIC ([2]; read-out: MIC) | MIC [3, 12] | MIC [4, 13] | MIC [5, 11] | MIC [6, 12] | MIC ([7]; read-out: MIC) | MIC [8, 14] | MIC [9, 11] | MIC [10, 15] | other results
O=C(NNc1cc(F)cc(F)c1)c1ccccn1 [Compound 2i] | 0.24 µg/mL (≈ 0.963 µM) | 1.95 µg/mL (≈ 7.82 µM) | 0.24 µg/mL (≈ 0.963 µM) | 0.49 µg/mL (≈ 1.97 µM) | 0.49 µg/mL (≈ 1.97 µM) | 0.49 µg/mL (≈ 1.97 µM) | 0.12 µg/mL (≈ 0.482 µM) | 0.12 µg/mL (≈ 0.482 µM) | 0.24 µg/mL (≈ 0.963 µM) | 0.06 to 1.95 µg/mL (≈ 0.241 to 7.82 µM) | cell survival (HepG2 cells; at 31.3 j·tg mL^−1): 89%
O=C(NNc1ccc(Cl)cc1)c1cnccn1 [Compound 9e] | – | – | – | – | – | – | – | – | – | – | MIC [1]: 1.95 μg/mL^−1; MIC [2]: 3.9 μg/mL^−1; MIC [3]: 3.9 μg/mL^−1; MIC [4]: 3.9 μg/mL^−1; MIC [5]: 1.95 μg/mL^−1; MIC [6]: 1.95 μg/mL^−1; MIC [7]: 1.95 μg/mL^−1; MIC [8]: 1.9 μg/mL^−1; MIC [9]: 1.95 μg/mL^−1
O=C(NNc1ccc(F)cc1)c1ncc(F)cc1F [Compound 7d] | – | – | – | – | – | – | – | – | – | 0.12 to 7.8 µg/mL (≈ 0.449 to 29.2 µM) | –
O=C(NNc1ccc(F)cc1)c1cccc(Br)n1 [Compound 6d] | – | – | – | – | – | – | – | – | – | 0.12 to 7.8 µg/mL (≈ 0.387 to 25.2 µM) | –
COc1cccc(NNC(=O)c2cnccn2)c1 [Compound 9c] | – | 7.8 µg/mL (≈ 31.9 µM) | 0.49 µg/mL (≈ 2.01 µM) | 1.95 µg/mL (≈ 7.98 µM) | 0.98 µg/mL (≈ 4.01 µM) | 0.49 µg/mL (≈ 2.01 µM) | 0.49 µg/mL (≈ 2.01 µM) | 0.49 µg/mL (≈ 2.01 µM) | 1.95 µg/mL (≈ 7.98 µM) | 0.12 to 7.8 µg/mL (≈ 0.491 to 31.9 µM) | toxicity (HepG2 cells; up to 31.3 j·tg mL^−1, 24 h): no toxicity
COc1ccc(NNC(=O)c2ccccn2)cc1 [Compound 2f] | 0.98 µg/mL (≈ 4.03 µM) | 1.95 µg/mL (≈ 8.02 µM) | 0.49 µg/mL (≈ 2.01 µM) | 0.98 µg/mL (≈ 4.03 µM) | 0.98 µg/mL (≈ 4.03 µM) | 0.49 µg/mL (≈ 2.01 µM) | 0.49 µg/mL (≈ 2.01 µM) | 0.49 µg/mL (≈ 2.01 µM) | 0.98 µg/mL (≈ 4.03 µM) | 0.12 to 7.8 µg/mL (≈ 0.493 to 32.1 µM) | –
O=C(NNc1ccc(F)cc1)c1ccc(Br)cn1 [Compound 4d] | – | – | – | – | – | – | – | – | – | 0.12 to 7.8 µg/mL (≈ 0.387 to 25.2 µM) | –
COc1ccc(NNC(=O)c2ncc(F)cc2F)cc1 [Compound 7f] | – | – | – | – | – | – | – | – | – | – | MIC ([10]; all C. auris strains tested with the exception of AR Bank #390): 0.49 to 1.95 µg/mL (≈ 1.75 to 6.98 µM)
O=C(NNc1ccc(F)cc1)c1nc(F)ccc1F [Compound 8d] | – | – | – | – | – | – | – | – | – | 0.06 to 1.95 µg/mL (≈ 0.225 to 7.3 µM) | –
O=C(NNc1cc(F)ccc1F)c1ccccn1 [Compound 2h] | 0.49 µg/mL (≈ 1.97 µM) | 1.95 µg/mL (≈ 7.82 µM) | 0.24 µg/mL (≈ 0.963 µM) | 0.49 µg/mL (≈ 1.97 µM) | 0.24 µg/mL (≈ 0.963 µM) | 0.98 µg/mL (≈ 3.93 µM) | 0.12 µg/mL (≈ 0.482 µM) | 0.24 µg/mL (≈ 0.963 µM) | 0.24 µg/mL (≈ 0.963 µM) | 0.06 to 1.95 µg/mL (≈ 0.241 to 7.82 µM) | –
O=C(NNc1cc(Cl)cc(Cl)c1)c1ccccn1 [Compound 2j] | 0.98 µg/mL (≈ 3.47 µM) | 3.9 µg/mL (≈ 13.8 µM) | 0.24 µg/mL (≈ 0.851 µM) | 3.9 µg/mL (≈ 13.8 µM) | 0.98 µg/mL (≈ 3.47 µM) | 0.24 µg/mL (≈ 0.851 µM) | 0.49 µg/mL (≈ 1.74 µM) | 0.49 µg/mL (≈ 1.74 µM) | 0.49 µg/mL (≈ 1.74 µM) | 0.12 to 7.8 µg/mL (≈ 0.425 to 27.6 µM) | –
O=C(NNc1ccc(F)cc1)c1cccc(F)n1 [Compound 5d] | – | – | – | – | – | – | – | – | – | 0.06 to 1.95 µg/mL (≈ 0.241 to 7.82 µM) | –
